Data from patent US11439625B2, “Combination therapy for proliferative diseases” (Avexxin AS, priority 2016, dated 2022).

Test system: MDA-MB-468 cell line
Test: Resazurin viability assay
Assay type: cell-based
Settings: co-treatment with BEZ235, sub-toxic doses combined, 24 hrs, MDA-MB-468 cells (FIG. 1)
Protocol: Cell Culture. The MDA-MB-468 cell line was from ATCC. This cell line was established from a pleural effusion of patient with metastatic breast adenocarcinoma. The cells were maintained in RPMI medium supplemented with 10% (v/v) FBS, 0.3 mg/mL L-glutamine, and 0.1 mg/mL gentamicin at 37° C. in 5% CO2. Sub-culture using trypsin-EDTA was performed every 3-4 days with a split ratio of 1:3-1:6 to ensure actively proliferating cells.
Resazurin Viability Assay. Cells were seeded in fully supplemented medium at a density of 7 000 cells per well in 96 well plates. After 24 hrs of cultivation, when the cells were ˜60% confluent, the medium was replaced with serum free medium to ensure synchronization of the cells and to increase cell sensitivity to treatment. Following 16 hrs of serum starvation, the medium was replaced with fresh serum free medium with or without Compounds 1 and 2 (Avexxin, Norway), and NVP-BEZ235 (Cayman Chemicals, US) or solvent (DMSO, Sigma Aldrich, US). The cells were observed under the microscope to evaluate possible morphology changes and signs of stress before the addition of resazurin according to the manufacturers instructions (RnD Systems, UK). Resazurin was metabolized for 2 hrs (37° C., 5% CO2) before fluorescence was read at 544 nm excitation and 590 nm emission wavelengths (BioTek Synergy HT).

In the case of CCCCCCCOc1ccc(OCC(=O)c2nc(C(=O)OC)cs2)cc1 [Compound 1], the “synergistic effects on breast cancer cell viability compared to each inhibitor alone” value is reported as “synergistic effects” and the “synergistic effects on breast cancer cell viability compared to each inhibitor alone” value (listed as compound 1) is reported as “the synergistic effect is pronounced”.
